Measured values published in the NIST ThermoML archive (doi:10.1021/je020189p).
Values joined by “and” are separate entries in the source; they are usually repeats but may differ in a detail not shown here. Equal values may be shown once.

[Br-].[Br-].[Br-].[Tb+3] [terbium tribromide]
Crystal
Details	vapor or sublimation pressure
904 K	4.79e-05 kPa
908 K	4.68e-05 kPa
912 K	3.8e-05 kPa
915 K	7.59e-05 kPa and 4.79e-05 kPa and 4.17e-05 kPa
917 K	8.13e-05 kPa
920 K	8.51e-05 kPa and 8.32e-05 kPa and 4.79e-05 kPa
921 K	7.59e-05 kPa
922 K	8.32e-05 kPa and 6.17e-05 kPa
924 K	0.000105 kPa
925 K	7.24e-05 kPa
928 K	9.55e-05 kPa
930 K	0.000132 kPa and 8.51e-05 kPa
931 K	0.00012 kPa
933 K	9.55e-05 kPa
934 K	8.51e-05 kPa and 0.00012 kPa
935 K	0.000151 kPa
937 K	0.000123 kPa and 0.000138 kPa
939 K	0.000151 kPa
940 K	0.000182 kPa [middle of 4 runs]
941 K	0.000115 kPa
943 K	0.000141 kPa
944 K	0.000209 kPa and 0.000186 kPa
945 K	0.000186 kPa
947 K	0.000214 kPa
948 K	0.00024 kPa and 0.000141 kPa
950 K	0.000182 kPa and 0.000166 kPa
954 K	0.000295 kPa
955 K	0.000191 kPa and 0.000269 kPa
956 K	0.000229 kPa
957 K	0.000331 kPa and 0.000229 kPa and 0.000275 kPa
958 K	0.000331 kPa and 0.000288 kPa
960 K	0.000363 kPa and 0.000316 kPa
962 K	0.000347 kPa [middle of 4 runs]
964 K	0.000288 kPa and 0.000389 kPa
968 K	0.000295 kPa
969 K	0.000363 kPa
970 K	0.000501 kPa
971 K	0.000355 kPa
973 K	0.000537 kPa and 0.000501 kPa
974 K	0.000575 kPa and 0.000355 kPa
975 K	0.000427 kPa
976 K	0.000501 kPa
977 K	0.000427 kPa and 0.000575 kPa
978 K	0.000617 kPa
980 K	0.000427 kPa
981 K	0.000661 kPa
983 K	0.000537 kPa and 0.000741 kPa
988 K	0.000871 kPa
989 K	0.000832 kPa
990 K	0.000912 kPa
991 K	0.001 kPa
992 K	0.00107 kPa
993 K	0.00107 kPa and 0.001 kPa
999 K	0.00115 kPa
1000 K	0.00126 kPa
1002 K	0.00132 kPa
1003 K	0.00138 kPa
1004 K	0.00148 kPa and 0.00158 kPa and 0.00129 kPa
1007 K	0.00155 kPa
1012 K	0.00174 kPa
1014 K	0.00166 kPa and 0.00209 kPa
1015 K	0.002 kPa and 0.00224 kPa
1019 K	0.00257 kPa
1020 K	0.00224 kPa
1024 K	0.0024 kPa
1025 K	0.00263 kPa and 0.00295 kPa
1030 K	0.00295 kPa
1032 K	0.00295 kPa
1035 K	0.00331 kPa and 0.00417 kPa
1039 K	0.00398 kPa
1042 K	0.00537 kPa
1045 K	0.00468 kPa
1047 K	0.00575 kPa
1049 K	0.00575 kPa
1051 K	0.00676 kPa
1054 K	0.00646 kPa
1058 K	0.00708 kPa
1059 K	0.00851 kPa and 0.00832 kPa
1064 K	0.00912 kPa
1067 K	0.01 kPa
1068 K	0.011 kPa and 0.0115 kPa
1071 K	0.0112 kPa
1076 K	0.0141 kPa and 0.0129 kPa
1078 K	0.0141 kPa
1085 K	0.0182 kPa
1088 K	0.0174 kPa and 0.0158 kPa
1099 K	0.0229 kPa
1108 K	0.0288 kPa

[Cl][Tb]([Cl])[Cl] [terbium trichloride]
Liquid
Details	vapor or sublimation pressure
921 K	6.76e-05 kPa
931 K	0.0001 kPa
937 K	0.000135 kPa
942 K	0.000209 kPa
943 K	0.00017 kPa
946 K	0.000166 kPa
950 K	0.000204 kPa
953 K	0.000219 kPa
957 K	0.000331 kPa and 0.000245 kPa
961 K	0.000288 kPa
965 K	0.000302 kPa
967 K	0.000331 kPa
971 K	0.000501 kPa and 0.000372 kPa
975 K	0.000407 kPa
976 K	0.000331 kPa
979 K	0.000447 kPa and 0.000331 kPa
980 K	0.000501 kPa
984 K	0.000537 kPa
988 K	0.000832 kPa
990 K	0.000661 kPa
992 K	0.000501 kPa
994 K	0.000708 kPa and 0.000741 kPa
995 K	0.000501 kPa
998 K	0.000794 kPa
999 K	0.00107 kPa and 0.000912 kPa
1006 K	0.00105 kPa and 0.000741 kPa
1009 K	0.000741 kPa
1010 K	0.00123 kPa and 0.00115 kPa
1011 K	0.00148 kPa
1017 K	0.00132 kPa [middle of 4 runs]
1020 K	0.00158 kPa
1021 K	0.00191 kPa
1024 K	0.00166 kPa
1026 K	0.00178 kPa
1027 K	0.00123 kPa
1028 K	0.00123 kPa
1029 K	0.00209 kPa
1033 K	0.00257 kPa
1034 K	0.00214 kPa
1035 K	0.00148 kPa
1037 K	0.00251 kPa and 0.00158 kPa
1038 K	0.00257 kPa
1043 K	0.00263 kPa and 0.00191 kPa
1045 K	0.00355 kPa
1047 K	0.00331 kPa
1048 K	0.00209 kPa
1053 K	0.00447 kPa
1054 K	0.00355 kPa and 0.00245 kPa
1056 K	0.00372 kPa
1057 K	0.00417 kPa
1058 K	0.00263 kPa
1059 K	0.00389 kPa
1064 K	0.00575 kPa
1065 K	0.00513 kPa
1067 K	0.00372 kPa
1071 K	0.00676 kPa and 0.00372 kPa
1072 K	0.00525 kPa
1073 K	0.00525 kPa
1075 K	0.00617 kPa
1081 K	0.00851 kPa
1082 K	0.00537 kPa
1091 K	0.00851 kPa
1092 K	0.0112 kPa
1093 K	0.00708 kPa
1102 K	0.0141 kPa
1105 K	0.00912 kPa
1117 K	0.0117 kPa

[I][Tb]([I])[I] [terbium triiodide]
Crystal
Details	vapor or sublimation pressure
861 K	1.91e-05 kPa
871 K	2.82e-05 kPa
879 K	3.31e-05 kPa
883 K	4.27e-05 kPa
884 K	3.8e-05 kPa and 5.01e-05 kPa
885 K	5.01e-05 kPa
891 K	4.79e-05 kPa
892 K	6.17e-05 kPa
895 K	7.08e-05 kPa
897 K	6.61e-05 kPa and 5.75e-05 kPa
900 K	0.0001 kPa
902 K	9.12e-05 kPa
903 K	7.59e-05 kPa
907 K	0.000126 kPa
909 K	0.000115 kPa and 9.55e-05 kPa
911 K	0.000151 kPa
912 K	0.000132 kPa
913 K	0.000123 kPa
915 K	0.000115 kPa
917 K	0.000174 kPa
920 K	0.000141 kPa
921 K	0.0002 kPa
922 K	0.000186 kPa
926 K	0.000209 kPa
927 K	0.000182 kPa and 0.000251 kPa
928 K	0.000251 kPa
929 K	0.000229 kPa
930 K	0.00024 kPa
931 K	0.000209 kPa
935 K	0.00024 kPa
936 K	0.000339 kPa
937 K	0.000347 kPa
938 K	0.000316 kPa
939 K	0.000339 kPa
940 K	0.000339 kPa and 0.000282 kPa
942 K	0.000676 kPa
944 K	0.000447 kPa
945 K	0.000479 kPa
947 K	0.000407 kPa and 0.000363 kPa
948 K	0.000468 kPa and 0.000427 kPa
951 K	0.00055 kPa
952 K	0.001 kPa
953 K	0.000447 kPa and 0.000603 kPa
955 K	0.000955 kPa
958 K	0.000661 kPa and 0.000631 kPa
959 K	0.000692 kPa and 0.000741 kPa
961 K	0.000776 kPa
963 K	0.000661 kPa
964 K	0.00135 kPa
966 K	0.000891 kPa and 0.000955 kPa
967 K	0.000912 kPa and 0.000977 kPa
971 K	0.00105 kPa and 0.00166 kPa and 0.001 kPa
972 K	0.00191 kPa and 0.0012 kPa
973 K	0.00117 kPa and 0.00115 kPa and 0.000955 kPa
975 K	0.00186 kPa
976 K	0.00135 kPa
977 K	0.00141 kPa
979 K	0.00141 kPa
980 K	0.00148 kPa and 0.00138 kPa
981 K	0.00123 kPa
983 K	0.00151 kPa and 0.0024 kPa
985 K	0.00186 kPa
986 K	0.00182 kPa and 0.0017 kPa
987 K	0.00288 kPa and 0.00191 kPa
988 K	0.00288 kPa and 0.00178 kPa and 0.00155 kPa
990 K	0.00288 kPa
992 K	0.00234 kPa
993 K	0.00219 kPa
994 K	0.00229 kPa and 0.00182 kPa
995 K	0.0024 kPa and 0.00389 kPa
998 K	0.00282 kPa [middle of 4 runs]
1001 K	0.00282 kPa
1002 K	0.0024 kPa
1003 K	0.00288 kPa and 0.00501 kPa
1004 K	0.00479 kPa and 0.00339 kPa
1005 K	0.00479 kPa
1006 K	0.00309 kPa
1008 K	0.00339 kPa and 0.00389 kPa
1009 K	0.00282 kPa and 0.0038 kPa
1012 K	0.00575 kPa and 0.00676 kPa
1013 K	0.00447 kPa
1015 K	0.00437 kPa
1016 K	0.00708 kPa
1017 K	0.00525 kPa
1018 K	0.00501 kPa
1019 K	0.00759 kPa
1020 K	0.00912 kPa
1021 K	0.00617 kPa
1022 K	0.0055 kPa
1026 K	0.00661 kPa
1027 K	0.00977 kPa
1028 K	0.00955 kPa
1029 K	0.00676 kPa and 0.0117 kPa and 0.00692 kPa
1033 K	0.00813 kPa
1036 K	0.0129 kPa
1037 K	0.00891 kPa and 0.0132 kPa
1039 K	0.0162 kPa
1043 K	0.0162 kPa
1044 K	0.0115 kPa
1049 K	0.0195 kPa and 0.0204 kPa and 0.0224 kPa
1050 K	0.0135 kPa
1057 K	0.0245 kPa
1058 K	0.0174 kPa
1059 K	0.0263 kPa and 0.0309 kPa
1064 K	0.0209 kPa and 0.0309 kPa
1066 K	0.0316 kPa and 0.038 kPa
1070 K	0.0263 kPa
1072 K	0.0389 kPa
1077 K	0.0324 kPa
1078 K	0.0457 kPa
